Test results taken from patent US8754060B2, “Methods and compositions for inhibition of axonal degeneration by modulation of the DLK/JNK pathway” (Washington University, priority 2008, dated 2014).

Tests used:
DRG axons = assay: DRG axotomy model: axon degeneration 24 hours post-axotomy (phase contrast, degeneration index); format: cell-based, mouse
Excerpt: In these experiments, the inventors cultured embryonic mouse dorsal root ganglion cells (DRGs) for 14-16 days to allow their axons to radiate from the central core of cell bodies before severing the axons with a micro-scalpel. […] Axotomized DLK mutant axons have a 65%+/−3.2% (se) decrease in degeneration index (DI) relative to controls (p<0.0001, n=8 individual axotomized DRG cultures per condition, t-test). Vincristine treatment induces 59%+/−6.3% (se) less DI in DLK mutants relative to controls (p<0.002, n=7 DRG cultures per condition, t-test). […] The initially smooth and continuous axonal processes become rough and irregular axon fragments. The extent of axon breakdown was quantified by measuring the fraction of axonal area occupied by fragmented axons (degeneration index, DI). […] Because non-neuronal cells are eliminated in this DRG culture system, we concluded that DLK must be required within neurons themselves for the normal axon degenerative response.
In these experiments, to determine whether the axon degeneration pathway requires either JNK or p38, we used pharmacological inhibitors of each MAP kinase in the DRG axotomy model. Wild-type DRG cultures were treated with the JNK inhibitor SP600215 and the p38 inhibitor SB203580 starting from 24 hours before axotomy and for the remainder of the experiment.
Unless noted, vehicle and inhibitors were added 24 hours pre-axotomy and left on for the duration of the experiment. FIG. 3A: Vehicle (DMSO). FIG. 3B: SB203580 (P38 inhibitor). FIG. 3C: SP600215 (JNK inhibitor). FIG. 3D: SP600215 added 24 hr pre-axotomy, and removed just before axotomy. FIG. 3E: SF600215 added concurrently with axotomy. FIG. 3F: SP600215 added 3 hours post-axotomy. FIG. 3G: SP600215 added concurrent with axotomy and removed 3 hours post-axotomy.

cultured DRG neurons = conditions: morphologically similar to that induced by axotomy (Wang et al. 2000; FIG. 2); cited from earlier work

| Compound | degeneration of DRG axons following axotomy (DRG axons; added 3 hours post-axotomy and continued for the rest of the experiment (FIG. 3F)) | degeneration of DRG axons following axotomy (DRG axons; added 24 hr pre-axotomy, and removed just before axotomy (FIG. 3D)) | degeneration of DRG axons following axotomy (DRG axons; added concurrent with axotomy and removed 3 hours post-axotomy (FIG. 3G), vs vehicle (DMSO)) | degeneration of DRG axons following axotomy (DRG axons; added concurrently with axotomy (FIG. 3E)) | degeneration of DRG axons following axotomy (DRG axons; inhibitor added 24 hours pre-axotomy and left on for the duration of the experiment, 24 hours post-axotomy, vs vehicle (DMSO) (FIG. 3B, 3C)) | axon degeneration triggered by the drug (cultured DRG neurons) |
| --- | --- | --- | --- | --- | --- | --- |
| O=C1c2ccccc2-c2n[nH]c3cccc1c23 [SP600215, Anthra[1,9-cd]pyrazol-6(2H)-one; 1,9-pyrazoloanthrone] | did not decrease axon degeneration | not protective | significantly less degenerated than A | protective | significantly less degenerated than A |  |
| CC[C@]1(O)C[C@H]2CN(CCc3c([nH]c4ccccc34)[C@@](C(=O)OC)(c3cc4c(cc3OC)N(C=O)[C@H]3[C@@](O)(C(=O)OC)[C@H](OC(C)=O)[C@]5(CC)C=CCN6CC[C@]43[C@@H]65)C2)C1 [vincristine] |  |  |  |  |  | triggers an axon degeneration |
